SMILES strings stand for the structures. Where two headings read alike, the source gives them in different places.

This note sets out measurements from patent US12098148B2, “Therapeutic compounds” (C4X Discovery Limited, priority 2018, dated 2024).

Assay [1] deals with NQO1 mRNA in BEAS-2B cells. In words: Beas2B NQO1 mRNA cell based assay. Also noted: species or system human. The conditions noted are these: Homo sapiens, BEAS-2B. The procedure:
Beas2B NQO1 mRNA Cell Based Assay
The up regulation of the NRF2 mediated gene NAD(P)H:quinone acceptor oxidoreductase 1 (NQO1) was measured using the following assay method: BEAS-2B cells (ATCC CRL-9609) were plated in 96-well clear plates at 20,000 cells/well in 75 μL of cell culture media and incubated overnight (37° C., 5% CO2). On day 2, 25 μL of compound or controls were added to the cells for 24 h. On day 3, the medium was aspirated from the plate and the Cells-to-CT™ 1-Step TaqMan® Kit (Ambion A25603) was used to perform expression analysis directly from cultured cells without RNA purification according to the manufacturer's instructions.
Briefly, cells were washed with ice cold PBS and 22.5 μL of room-temperature DNase/Lysis solution was added to the cells and incubated at room temperature for 5 minutes. To stop the reaction, 2.25 μL of stop solution was added to the cell lysate. The samples were diluted 1:5 using nuclease free water and 2.5 μL transferred into the PCR plate. Real-time PCR was performed using the C-1000 Thermal Cycler (Bio-Rad) using human beta actin as the internal control. The cDNA was amplified with a specific primer for NQO1 using the 1-step RT-PCR master mix (Ambion Cells-to-CT™ 1-Step TaqMan® Kit A25603). The primers/probes sets that were used for amplification of cDNA were obtained from TaqMan Gene Expression Assays (Applied Biosystems). The comparative CT (ΔΔCT) relative quantification method was used to calculate the relative mRNA level of the target gene NQO1 as described in the Applied Biosystems Chemistry Guide.

Assay [2] addresses human KEAP1 (N-term, residues 321-609) (Homo sapiens, UniProt Q14145). Briefly: biochemical.
The mark [3] stands for this setting: 24 h, 24 h compound treatment, increase in NQO1 mRNA vs vehicle (0.1% DMSO), read-out: EC50.
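Throughout, for IC50: fluorescence polarization competition assay of Kelch domain binding to NRF2, 12-point 1:3 dilution series from 10 µM, read after 1 h at room temperature, floor 10 nM.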

Chain of human KEAP1 (N-term, residues 321-609) (Q14145 321-609): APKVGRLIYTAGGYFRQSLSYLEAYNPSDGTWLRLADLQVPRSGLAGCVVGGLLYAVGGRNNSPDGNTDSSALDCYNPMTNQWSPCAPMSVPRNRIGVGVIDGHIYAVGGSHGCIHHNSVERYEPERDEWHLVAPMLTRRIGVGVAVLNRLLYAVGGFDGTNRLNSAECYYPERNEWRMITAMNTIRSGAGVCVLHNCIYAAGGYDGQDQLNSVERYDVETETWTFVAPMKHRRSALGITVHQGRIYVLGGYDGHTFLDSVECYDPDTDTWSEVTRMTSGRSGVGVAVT

As for `Cc1ncc(C(=O)N2CC[C@H](Oc3cccc4c3[C@@H](CN3C(=O)c5ccccc5C3=O)N(C(=O)[C@@H]3CCCC[C@@H]3C(=O)O)CC4)C2)s1` [Example 7, (1S,2R)-2-((S)-1-((1,3-dioxoisoindolin-2-yl)methyl)-8-(((S)-1-(2-methylthiazole-5-carbonyl)pyrrolidin-3-yl)oxy)-1,2,3,4-tetrahydroisoquinoline-2-carbonyl)cyclohexane-1-carboxylic acid], the 50% effective concentration (EC50) in assay [1] (setting [3]) amounted to 48 nM. The molecule further came in with an IC50 in assay [2] of 6.2 nM.

Turning to `Cn1nnc2cc(COc3cccc4c3[C@@H](CN3C(=O)c5ccccc5C3=O)N(C(=O)[C@@H]3CCCC[C@@H]3C(=O)O)CC4)ccc21` [Example 8, (1S,2R)-2-((S)-1-((1,3-Dioxoisoindolin-2-yl)methyl)-8-((1-methyl-1H-benzo[d][1,2,3]triazol-5-yl)methoxy)-1,2,3,4-tetrahydroisoquinoline-2-carbonyl)cyclohexane-1-carboxylic acid], in assay [1] (setting [3]), the EC50 turned out to be 48 nM. Besides, the IC50 in assay [2] is 8.2 nM.

As for `Cn1cc(COc2cccc3c2[C@@H](CN2C(=O)c4ccccc4C2=O)N(C(=O)[C@@H]2CCCC[C@@H]2C(=O)O)CC3)nn1` [Example 9, (1S,2R)-2-((S)-1-((1,3-dioxoisoindolin-2-yl)methyl)-8-((1-methyl-1H-1,2,3-triazol-4-yl)methoxy)-1,2,3,4-tetrahydroisoquinoline-2-carbonyl)cyclohexane-1-carboxylic acid], the EC50 in assay [1] (setting [3]) came out at 24 nM. Moreover, inhibition in assay [2] was half-maximal at 7.7 nM (IC50).

As for `Cn1cnc2cc(COc3cccc4c3[C@@H](CN3C(=O)c5ccccc5C3=O)N(C(=O)[C@@H]3CCCC[C@@H]3C(=O)O)CC4)ccc21` [Example 10, (1S,2R)-2-((S)-1-((1,3-dioxoisoindolin-2-yl)methyl)-8-((1-methyl-1H-benzo[d]imidazol-5-yl)methoxy)-1,2,3,4-tetrahydroisoquinoline-2-carbonyl)cyclohexane-1-carboxylic acid], the concentration for a half-maximal effect (EC50) in assay [1] (setting [3]) was 140 nM; in assay [1] (NQO1 mRNA, on one test occasion, read-out: EC50 on one test occasion (footnote to Table 5)) it was greater than 500 nM. Also, the concentration for half-maximal inhibition (IC50) in assay [2] worked out at 15 nM.

Take `CC(=O)N1CC[C@H](Oc2ccc(Br)c3c2[C@@H](CN2C(=O)c4ccccc4C2=O)N(C(=O)[C@@H]2CCCC[C@@H]2C(=O)O)CC3)C1` [Example 11, (1S,2R)-2-((S)-8-(((S)-1-Acetylpyrrolidin-3-yl)oxy)-5-bromo-1-((1,3-dioxoisoindolin-2-yl)methyl)-1,2,3,4-tetrahydroisoquinoline-2-carbonyl)cyclohexane-1-carboxylic acid]: in assay [1] (setting [3]), the EC50 is 3.5 nM. In assay [2], this molecule registered an IC50 of 5.1 nM.

In the case of `CC(=O)N1CC[C@H](Oc2ccc(Cl)c3c2[C@@H](CN2C(=O)c4ccccc4C2=O)N(C(=O)[C@@H]2CCCC[C@@H]2C(=O)O)CC3)C1` [Example 12, (1S,2R)-2-((S)-8-(((S)-1-Acetylpyrrolidin-3-yl)oxy)-5-chloro-1-((1,3-dioxoisoindolin-2-yl)methyl)-1,2,3,4-tetrahydroisoquinoline-2-carbonyl)cyclohexane-1-carboxylic acid], the EC50 in assay [1] (setting [3]) was found to be 8.6 nM. Half-maximal inhibition in assay [2] (IC50) was put at 5.8 nM.

Consider `CC(=O)N1CC[C@H](Oc2c(Cl)cc(Cl)c3c2[C@@H](CN2C(=O)c4ccccc4C2=O)N(C(=O)[C@@H]2CCCC[C@@H]2C(=O)O)CC3)C1` [Example 13, (1S,2R)-2-((S)-8-(((S)-1-Acetylpyrrolidin-3-yl)oxy)-5,7-dichloro-1-((1,3-dioxoisoindolin-2-yl)methyl)-1,2,3,4-tetrahydroisoquinoline-2-carbonyl)cyclohexane-1-carboxylic acid], for which, in assay [1] (setting [3]), the concentration giving a half-maximal response (EC50) amounted to 530 nM. The IC50 in assay [2] came to 8.5 nM.

As for `O=C(O)[C@H]1CCCC[C@H]1C(=O)N1CCc2c(Cl)ccc(O[C@H]3CCN(C(=O)c4cncs4)C3)c2[C@H]1CN1C(=O)c2ccccc2C1=O` [Example 14, (1S,2R)-2-((S)-5-chloro-1-((1,3-dioxoisoindolin-2-yl)methyl)-8-(((S)-1-(thiazole-5-carbonyl)pyrrolidin-3-yl)oxy)-1,2,3,4-tetrahydroisoquinoline-2-carbonyl)cyclohexane-1-carboxylic acid], in assay [1] (setting [3]), the EC50 is 2.9 nM. The same molecule showed an IC50 in assay [2] of 3.7 nM.

As to `O=C(O)[C@H]1CCCC[C@H]1C(=O)N1CCc2cccc(O[C@H]3CCN(C(=O)c4cncs4)C3)c2[C@H]1CN1Cc2ccccc2C1=O` [Example 15, (1S,2R)-2-((S)-1-((1-Oxoisoindolin-2-yl)methyl)-8-(((S)-1-(thiazole-5-carbonyl)pyrrolidin-3-yl)oxy)-1,2,3,4-tetrahroisoquinoline-2-carbonyl)cyclohexane-1-carboxylic acid], the EC50 in assay [1] (setting [3]) stood at 850 nM. This molecule also came in with an IC50 in assay [2] of 5.1 nM.

Take `O=C(O)[C@H]1CCCC[C@H]1C(=O)N1CCc2c(Br)ccc(OCc3nnc4ccccn34)c2[C@H]1CN1Cc2ccccc2C1=O` [Example 16, (1S,2R)-2-((S)-8-([1,2,4]triazolo[4,3-a]pyridin-3-ylmethoxy)-5-bromo-1-((1-oxoisoindolin-2-yl)methyl)-1,2,3,4-tetrahydroisoquinoline-2-carbonyl)cyclohexane-1-carboxylic acid]: the EC50 in assay [1] (setting [3]) was 2 nM. Further, in assay [2], the midpoint of inhibition, the IC50, lay at 8.1 nM.

As for `CC(C)n1cc(COc2cccc3c2[C@@H](CN2Cc4ccccc4C2=O)N(C(=O)[C@@H]2CCCC[C@@H]2C(=O)O)CC3)nn1` [Example 17, (1S,2R)-2-((S)-8-((1-Isopropyl-1H-1,2,3-triazol-4-yl)methoxy)-1-((1-oxoisoindolin-2-yl)methyl)-1,2,3,4-tetrahydroisoquinoline-2-carbonyl)cyclohexane-1-carboxylic acid], the EC50 in assay [1] (setting [3]) was 110 nM. Further, the IC50 in assay [2] is 9.7 nM.

Take `Cn1nnc2cc(COc3cccc4c3[C@@H](CN3Cc5ccccc5C3=O)N(C(=O)[C@@H]3CCCC[C@@H]3C(=O)O)CC4)ccc21` [Example 18, (1S,2R)-2-((S)-8-((1-methyl-1H-benzo[d][1,2,3]triazol-5-yl)methoxy)-1-((1-oxoisoindolin-2-yl)methyl)-1,2,3,4-tetrahydroisoquinoline-2-carbonyl)cyclohexane-1-carboxylic acid]: in assay [1] (setting [3]), the EC50 amounted to 73 nM. The same molecule registered a concentration for half-maximal inhibition (IC50) in assay [2] of 10 nM.

On to `CC(=O)N1CC[C@H](Oc2ccc(Br)c3c2[C@@H](CN2Cc4ccccc4C2=O)N(C(=O)[C@@H]2CCCC[C@@H]2C(=O)O)CC3)C1` [Example 19, (1S,2R)-2-((S)-8-(((S)-1-acetylpyrrolidin-3-yl)oxy)-5-bromo-1-((1-oxoisoindolin-2-yl)methyl)-1,2,3,4-tetrahydroisoquinoline-2-carbonyl)cyclohexane-1-carboxylic acid], for which, in assay [1] (setting [3]), the EC50 came out at 130 nM. For the same molecule, inhibition in assay [2] was half-maximal at 9.7 nM (IC50).

Consider `Cc1ncc(C(=O)N2CC[C@H](Oc3ccc(Br)c4c3[C@@H](CN3Cc5ccccc5C3=O)N(C(=O)[C@@H]3CCCC[C@@H]3C(=O)O)CC4)C2)s1` [Example 20, (1S,2R)-2-((S)-5-Bromo-8-(((S)-1-(2-methylthiazole-5-carbonyl)-pyrrolidin-3-yl)oxy)-1-((1-oxoisoindolin-2-yl)methyl)-1,2,3,4-tetrahydroisoquinoline-2-carbonyl)cyclohexane-1-carboxylic acid], for which the EC50 in assay [1] (setting [3]) stood at 20 nM. The molecule further returned an IC50 in assay [2] of 5.4 nM.

`Cc1cnc(N2CC[C@H](Oc3ccc(Br)c4c3[C@@H](CN3Cc5ccccc5C3=O)N(C(=O)[C@@H]3CCCC[C@@H]3C(=O)O)CC4)C2)s1` [Example 21, (1S,2R)-2-((S)-5-bromo-8-(((S)-1-(5-methylthiazol-2-yl)pyrrolidin-3-yl)oxy)-1-((1-oxoisoindolin-2-yl)methyl)-1,2,3,4-tetrahydroisoquinoline-2-carbonyl)cyclohexane-1-carboxylic acid]: in assay [1] (setting [3]), the EC50 came out at 7.9 nM. The molecule further showed a concentration for half-maximal inhibition (IC50) in assay [2] of 4.7 nM.

Consider `Cc1cnnc(N2CC[C@H](Oc3ccc(Br)c4c3[C@@H](CN3Cc5ccccc5C3=O)N(C(=O)[C@@H]3CCCC[C@@H]3C(=O)O)CC4)C2)c1` [Example 22, (1S,2R)-2-((S)-5-bromo-8-(((S)-1-(5-methylpyridazin-3-yl)pyrrolidin-3-yl)oxy)-1-((1-oxoisoindolin-2-yl)methyl)-1,2,3,4-tetrahydroisoquinoline-2-carbonyl)cyclohexane-1-carboxylic acid], for which the concentration giving a half-maximal response (EC50) in assay [1] (setting [3]) is 15 nM. Also, in assay [2], the 50% inhibitory concentration (IC50) stood at 4.7 nM.

For `Cn1cnnc1COc1ccc(Br)c2c1[C@@H](CN1Cc3ccccc3C1=O)N(C(=O)[C@@H]1CCCC[C@@H]1C(=O)O)CC2` [Example 23, (1S,2R)-2-((S)-5-bromo-8-((4-methyl-4H-1,2,4-triazol-3-yl)methoxy)-1-((1-oxoisoindolin-2-yl)methyl)-1,2,3,4-tetrahydroisoquinoline-2-carbonyl)cyclohexane-1-carboxylic acid], in assay [1] (setting [3]), the concentration for a half-maximal effect (EC50) came out at 33 nM. In assay [2], this molecule gave an IC50 of 10 nM.

Broadly, the EC50 is the midpoint of the concentration-response curve. What is called IC50 is the concentration at which inhibition is half-maximal.
